Data set [1] concerns Complete Freund's Adjuvant (CFA) induced joint inflammation in rat. To be noted: CFA #1. How it is done: Because OA is now known to have an inflammatory component, an animal model that mimics inflammatory arthritis was used to test HA/GlcN/CS formulations. Complete Freund's Adjuvant (CFA) comprises an emulsion of killed bacterial cells that is injected systemically or into the joint of a rat to induce severe inflammation. Two CFA studies were conducted, the first using a 200 uL injection of CFA to induce inflammation (CFA #1), the second using an injection volume of 100 uL (CFA #2). Test articles were prepared using the liquid/liquid formulation method described above.
Von Frey filaments were used to assess mechano-allodynia (pain sensation from a normally non-painful stimulus) on days 6, 7, 8, 17, and 21 following CFA injection. […] This protocol was used to test the 18.0 and 1.8 mg/mL HA/GlcN/CS formulations. As with the rat MMT model, the cumulative improvements in pain relief were calculated. […] In this figure, the 1.8 mg/mL HA/GlcN/CS group and the 18 mg/mL HA/GlcN/CS group are labeled as “G/C 1.8 mg/ml” and “G/C 18 mg/ml”, respectively. The untreated group is labeled as “Untx” in this figure.

Data set [2] has as its system PGPS (peptidoglycan polysaccharide) reactivation arthritis in male Lewis rats. As to the kind of experiment: PGPS model of episodic inflammatory arthritis: weight bearing and gait analysis. The data set is classed as in vivo. To be noted: PGPS second reactivation (after repriming). How it is done: The PGPS model of arthritis is used to simulate episodic inflammation of the joint. PGPS (peptidoglycan polysaccharide) is a streptococcal cell wall formulation that is injected directly into the joint of the test subject, resulting in a painful inflammatory response. Unlike the continuous FCA response, the inflammatory pain from PGPS is transient, typically lasting only a few days. Following this “priming” injection to the joint, subsequent systemic injections result in inflammatory flares in the previously injected joint for a period of several days. The “reactivation” inflammatory flares can be repeated multiple times, with the inflammatory pain generally decreasing with subsequent reactivation cycles. Alternatively, the joint can be “reprimed” following the initial reactivation, resulting in a more robust inflammatory response in subsequent reactivations.
As with the rat MMT model, the effect of intra-articular therapies is assessed by static weight bearing measurements. […]
In the present experiment, two reactivation cycles were induced in male Lewis rats following the initial PGPS intra-articular injection. […] Weight bearing and gait analysis scores were recorded on days 1, 4, 7, and 14 following the reactivation injection. […] Weight bearing and gait analysis scores were recorded on days 1, 2, 3, and 4 following reactivation. […]

Data set [3] deals with Complete Freund's Adjuvant (CFA) induced joint inflammation in rat. Description: CFA model of inflammatory arthritis, study CFA #2 (100 uL CFA). To be noted: daily oral, high dose 30 mg/kg, FIG. 8. The data set is classed as in vivo. How it is done:
In CFA #2 the same protocol was followed except for the lower dose of CFA which was intended to induce a less severe inflammatory reaction and subsequently milder pain. Also, daily oral ibuprofen (labeled as “IBR” in FIG. 8) was used as a positive control rather than diclofenac, at doses of 10 mg/kg and high 30 mg/kg. These doses were equivalent to human daily doses of […] and 3600 mg, respectively. Both are considered high doses of ibuprofen that are generally not recommended for long term use.

Here are results for 3 compounds from patent US10532069B2, “Compositions and methods for treating joints” (DePuy Synthes Products, Inc., priority 2015, dated 2020).

Turning to `O=C(O)Cc1ccccc1Nc1c(Cl)cccc1Cl` [diclofenac], the “safety (premature deaths of animals)” value in data set [1] is given as “several animals in the diclofenac group died prematurely”. In addition, the “AUC analysis of pain relief compared to HA alone” value in data set [1] (comparison with HA alone, FIG. 7) is “statistically superior to HA alone”. The “AUC analysis of pain relief (Von Frey mechano-allodynia)” value in data set [1] (single IA injection on day 5 after CFA (diclofenac daily oral), days 6, 7, 8, 17, 21, FIG. 7) was “significant improvement in pain relief”. In the case of `C[C@]12C=CC(=O)C=C1CC[C@H]1[C@@H]3C[C@@H](O)[C@](O)(C(=O)CO)[C@@]3(C)C[C@H](O)[C@@]12F` [triamcinolone], the weight bearing deficit entry in data set [2] is reported as “significant improvement”. As to `CC(C)Cc1ccc(C(C)C(=O)O)cc1` (centres unmarked) [ibuprofen], the “pain relief as cumulative improvement in weight bearing deficiency” value in data set [3] is recorded as “significant improvement in pain relief”.
